According to patent publication US7420056B2, “Substituted bicyclic imidazo-3-ylamine compounds” (Gruenenthal GmbH, priority 2004, dated 2008):
Where a name gives a salt, the structure may show the parent alone.

Target: mGluR5 receptor (Sus scrofa, UniProt I3LUI7)
Assay: Affinity for the mGluR5 receptor: inhibition of 3[H]-MPEP binding in pig brain homogenate
Settings: for IC50: 3[H]-MPEP binding; for inhibition at 10 µM: 10 μM compound, 5 nM 3[H]-MPEP, read-out: mGluR5 receptor inhibition of ^3[H]-MPEP binding [10 μM] in % at a concentration of the example compounds of 10 μM
Protocol: 1. Method for Determining Affinity for the mGluR5 Receptor
Pig brain homogenate is produced by homogenisation (Polytron Pt 3000, Kinematica AG, 10,000 revolutions per minute for 90 seconds) of pig brain hemispheres without medulla, cerebellum and pons in a buffer of pH 8.0 (30 mM Hepes, Sigma, order number H3375+1 tablet Complete Roche Diagnostics, order number 1836145 made up to 100 ml) in a ratio of 1:20 (brain weight/volume) and differential centrifugation at 900×g and 40,000×g. 450 μg of protein from brain homogenate is incubated in each case in 250 μl incubation batches in 96-well microtitre plates with 5 nM 3[H]-MPEP (Tocris, order number R1212) (MPEP=2-methyl-6-[…]) and the compounds to be investigated (10 μM in the test) in the buffer (as above) at room temperature for 60 minutes.
The batches are then filtered with the assistance of a Brandel Cell Harvester (Brandel, Grade Robotic 9600) on Unifilter plates with glass filter mats (Perkin Elmer, order number 6005177) and then washed 3 times with buffer (as above) using 250 μl per sample. The filter plates are then dried for 60 minutes at 55° C. Then 30 μl of Ultima Gold™ scintillating material (Packard BioScience, order number 6013159) is added per well and after 3 hours the samples are measured using the β counter (Microbeta, Perkin Elmer). Nonspecific binding is determined by the addition of 10 μM MPEP (Tocris, order number 1212).

mGluR5 receptor, sequence (I3LUI7 19-1212): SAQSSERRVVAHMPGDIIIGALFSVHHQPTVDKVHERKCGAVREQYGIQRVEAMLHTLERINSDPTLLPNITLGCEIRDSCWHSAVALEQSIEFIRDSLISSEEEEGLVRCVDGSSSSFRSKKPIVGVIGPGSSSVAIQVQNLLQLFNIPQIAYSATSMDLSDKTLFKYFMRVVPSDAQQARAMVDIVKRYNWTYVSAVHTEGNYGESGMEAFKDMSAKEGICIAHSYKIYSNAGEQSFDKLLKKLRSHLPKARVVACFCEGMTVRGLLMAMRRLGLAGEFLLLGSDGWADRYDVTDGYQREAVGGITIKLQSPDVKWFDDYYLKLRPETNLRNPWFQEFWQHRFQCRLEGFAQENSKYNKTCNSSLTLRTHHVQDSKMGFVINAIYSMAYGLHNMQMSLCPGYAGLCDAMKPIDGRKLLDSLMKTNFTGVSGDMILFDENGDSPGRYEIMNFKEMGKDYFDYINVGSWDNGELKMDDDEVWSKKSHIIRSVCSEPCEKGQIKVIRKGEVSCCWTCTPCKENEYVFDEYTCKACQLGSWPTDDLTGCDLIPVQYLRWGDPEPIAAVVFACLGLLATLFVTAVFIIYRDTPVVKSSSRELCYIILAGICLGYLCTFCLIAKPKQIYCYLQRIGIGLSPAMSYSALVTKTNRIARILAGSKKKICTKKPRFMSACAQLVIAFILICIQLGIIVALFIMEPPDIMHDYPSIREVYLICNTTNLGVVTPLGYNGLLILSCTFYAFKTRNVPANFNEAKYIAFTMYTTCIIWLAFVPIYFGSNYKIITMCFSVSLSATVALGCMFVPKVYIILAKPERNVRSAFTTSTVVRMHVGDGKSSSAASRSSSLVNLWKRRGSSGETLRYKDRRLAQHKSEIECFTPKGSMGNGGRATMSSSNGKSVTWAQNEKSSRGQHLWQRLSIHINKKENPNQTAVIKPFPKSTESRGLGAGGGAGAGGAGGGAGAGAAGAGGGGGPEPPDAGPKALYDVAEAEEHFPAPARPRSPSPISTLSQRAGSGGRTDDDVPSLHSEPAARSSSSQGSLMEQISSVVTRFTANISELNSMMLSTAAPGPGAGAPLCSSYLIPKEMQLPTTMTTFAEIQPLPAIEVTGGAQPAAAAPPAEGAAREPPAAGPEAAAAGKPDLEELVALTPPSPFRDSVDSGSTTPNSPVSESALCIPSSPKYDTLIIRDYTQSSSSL

| SMILES | IC50 [µM] | inhibition at 10 µM [%] |
| --- | --- | --- |
| CC(C)(C)Nc1c(-c2ccc(C#Cc3ccncc3)s2)nc2cnccn12 [Example 76, tert-butyl-[2-(5-pyridin-4-ylethynyl-thiophen-2-yl)-imidazo[1,2-a]pyrazin-3-yl]-amine] | 0.0037 |  |
| CC(C)(C)Nc1c(-c2ccc(C#Cc3ccccn3)s2)nc2cnccn12 [Example 77, tert-butyl-[2-(5-pyridin-2-ylethynyl-thiophen-2-yl)-imidazo[1,2-a]pyrazin-3-yl]-amine] | 0.0057 |  |
| C(#Cc1ccc(-c2nc3cnccn3c2N(Cc2cccnc2)Cc2cccnc2)s1)c1ccccc1 [Example 79, [2-(5-phenylethynyl-thiophen-2-yl)-imidazo[1,2-a]pyrazin-3-yl]-bis-pyridin-3-ylmethyl-amine] |  | 35 |
| CC(C)(C)Nc1c(-c2ccc(C#Cc3cccnc3)s2)nc2cnccn12 [Example 82, tert-butyl-[2-(5-pyridin-3-ylethynyl-thiophen-2-yl)-imidazo[1,2-a]pyrazin-3-yl]-amine] | 0.2 |  |
| COC(=O)c1nccn2c(NC(C)(C)CC(C)(C)C)c(-c3ccc(C#Cc4ccccc4)s3)nc12 [Example 84, methyl-2-(5-(phenylethynyl)thiophen-2-yl)-3-(2,4,4-trimethylpentan-2-ylamino)imidazo[1,2-a]pyrazine-8-carboxylate] | 1.32 |  |
| CC(C)(C)CC(C)(C)Nc1c(-c2ccc(C#Cc3ccccc3)s2)nc2ncccn12 [Example 85, 2-(5-(phenylethynyl)thiophen-2-yl)-N-(2,4,4-trimethylpentan-2-yl)imidazo[1,2-a]pyrimidin-3-amine] | 2.01 |  |
| Cc1cccc(C#Cc2ccc(-c3nc4cnccn4c3NC(C)(C)CC(C)(C)C)s2)n1 [Example 86, 2-(5-((6-methylpyridin-2-yl)ethynyl)thiophen-2-yl)-N-(2,4,4-trimethylpentan-2-yl)imidazo[1,2-a]pyrazin-3-amine] | 0.32 |  |
| Cc1cc(Br)c2nc(-c3ccc(C#Cc4ccccn4)s3)c(NC3CCCC3)n2c1 [Example 92, 8-bromo-N-cyclopentyl-6-methyl-2-(5-(pyridin-2-ylethynyl)thiophen-2-yl)imidazo[1,2-a]pyridin-3-amine] |  | 82 |
| CC(C)(C)Nc1c(-c2ccc(C#Cc3ccccc3)o2)nc2cnccn12 [Example 95, N-tert-butyl-2-(5-(phenylethynyl)furan-2-yl)imidazo[1,2-a]pyrazin-3-amine] | 1.74 |  |
| Cc1cc(Br)c2nc(-c3cccc(C#Cc4ccccn4)c3)c(NC(C)(C)C)n2c1 [Example 96, 8-bromo-N-tert-butyl-6-methyl-2-(3-(pyridin-2-ylethynyl)phenyl)imidazo[1,2-a]pyridin-3-amine] |  | 79 |
| Cc1cccn2c(NC(C)(C)C)c(-c3ccc(C#Cc4ccccc4)s3)nc12 [Example 97, N-tert-butyl-8-methyl-2-(5-(phenylethynyl)thiophen-2-yl)imidazo[1,2-a]pyridin-3-amine] | 0.59 |  |
| CC(C)(C)Nc1c(-c2ccc(C#Cc3ccc(F)cc3)s2)nc2cnccn12 [Example 100, N-tert-butyl-2-(5-((4-fluorophenyl)ethynyl)thiophen-2-yl)imidazo[1,2-a]pyrazin-3-amine hydrochloride] | 0.34 |  |
| Cc1ccn2c(NC(C)(C)C)c(-c3ccc(C#Cc4ccccc4)s3)nc2c1 [Example 101, N-tert-butyl-7-methyl-2-(5-(phenylethynyl)thiophen-2-yl)imidazo[1,2-a]pyridin-3-amine] | 2.47 |  |
| Cc1cccc2nc(-c3ccc(C#Cc4ccccc4)s3)c(NC(C)(C)C)n12 [Example 102, N-tert-butyl-5-methyl-2-(5-(phenylethynyl)thiophen-2-yl)imidazo[1,2-a]pyridin-3-amine] | 8.85 |  |
| CC(C)(C)CC(C)(C)Nc1c(-c2cccc(C#Cc3ccccn3)c2)nc2c(Cl)cc(C(F)(F)F)cn12 [Example 103, 8-chloro-2-(3-(pyridin-2-ylethynyl)phenyl)-6-(trifluoromethyl)-N-(2,4,4-trimethylpentan-2-yl)imidazo[1,2-a]pyridin-3-amine] |  | 66 |
| COC(=O)c1nccn2c(NC(C)(C)C)c(-c3ccc(C#Cc4ccccc4)s3)nc12 [Example 106, methyl-3-(tert-butylamino)-2-(5-(phenylethynyl)thiophen-2-yl)imidazo[1,2-a]pyrazine-8-carboxylate] | 0.21 |  |
| CC(C)(C)Nc1c(-c2ccc(C#Cc3cnccn3)s2)nc2cnccn12 [Example 107, N-tert-butyl-2-(5-(pyrazin-2-ylethynyl)thiophen-2-yl)imidazo[1,2-a]pyrazin-3-amine] | 0.052 |  |
| CC(C)(C)Nc1c(-c2ccc(C#Cc3ccc(N)cc3)s2)nc2cnccn12 [Example 108, 2-(5-((4-aminophenyl)ethynyl)thiophen-2-yl)-N-tert-butylimidazo[1,2-a]pyrazin-3-amine] | 1.24 |  |

Continued, values first:

| IC50 [µM] | inhibition at 10 µM [%] | SMILES |
| --- | --- | --- |
| 2.32 |  | CCNc1c(-c2ccc(C#Cc3ccccc3)s2)nc2cnccn12 [Example 68, ethyl-[2-(5-phenylethynyl-thiophen-2-yl)-imidazo[1,2-a]pyrazin-3-yl]-amine] |
| 2.93 |  | CCCNc1c(-c2ccc(C#Cc3ccccc3)s2)nc2cnccn12 [Example 69, propyl-[2-(5-phenylethynyl-thiophen-2-yl)-imidazo[1,2-a]pyrazin-3-yl]-amine] |
| 1.06 |  | CCCCNc1c(-c2ccc(C#Cc3ccccc3)s2)nc2cnccn12 [Example 70, butyl-[2-(5-phenylethynyl-thiophen-2-yl)-imidazo[1,2-a]pyrazin-3-yl]-amine] |
| 1.27 |  | CC(C)CNc1c(-c2ccc(C#Cc3ccccc3)s2)nc2cnccn12 [Example 71, (2-methylpropyl)-[2-(5-phenylethynyl-thiophen-2-yl)-imidazo[1,2-a]pyrazin-3-yl]-amine] |
| 5.34 |  | CCCCCNc1c(-c2ccc(C#Cc3ccccc3)s2)nc2cnccn12 [Example 72, pentyl-[2-(5-phenylethynyl-thiophen-2-yl)-imidazo[1,2-a]pyrazin-3-yl]-amine] |
| 2.21 |  | COC(=O)CN(CC(=O)OC)c1c(-c2ccc(C#Cc3ccccc3)s2)nc2cnccn12 [Example 73, {(methoxycarbonylmethyl)-[2-(5-phenylethynyl-thiophen-2-yl)-imidazo[1,2-a]pyrazin-3-yl]-amino}-acetic acid methyl ester] |
| 1.1 |  | C(#Cc1ccc(-c2nc3cnccn3c2NCc2ccccc2)s1)c1ccccc1 [Example 74, benzyl-[2-(5-phenylethynyl-thiophen-2-yl)-imidazo[1,2-a]pyrazin-3-yl]-amine] |
| 1.29 |  | COC(=O)CNc1c(-c2ccc(C#Cc3ccccc3)s2)nc2cnccn12 [Example 75, [2-(5-phenylethynyl-thiophen-2-yl)-imidazo[1,2-a]pyrazin-3-ylamino]-acetic acid methyl ester] |
|  | 35 | Nc1c(-c2ccc(C#Cc3ccccc3)s2)nc2cnccn12 [Example 83, 2-(5-phenylethynyl-thiophen-2-yl)-imidazo[1,2-a]pyrazin-3-ylamine] |
|  | 35 | C(#Cc1ccc(-c2nc3cnccn3c2NC2CCCCC2)s1)c1ccccc1 [Example 87, N-cyclohexyl-2-(5-(phenylethynyl)thiophen-2-yl)imidazo[1,2-a]pyrazin-3-amine] |
| 1.4 |  | C(#Cc1ccc(-c2nc3cnccn3c2N2CCCCC2)s1)c1ccccc1 [Example 88, 2-(5-(phenylethynyl)thiophen-2-yl)-3-(piperidin-1-yl)imidazo[1,2-a]pyrazine] |
| 0.045 |  | CN(c1c(-c2ccc(C#Cc3ccccc3)s2)nc2cnccn12)C(C)(C)C [Example 89, N-tert-butyl-N-methyl-2-(5-(phenylethynyl)thiophen-2-yl)imidazo[1,2-a]pyrazin-3-amine] |
| 0.25 |  | CCN(CC)c1c(-c2ccc(C#Cc3ccccc3)s2)nc2cnccn12 [Example 93, N,N-diethyl-2-(5-(phenylethynyl)thiophen-2-yl)imidazo[1,2-a]pyrazin-3-amine] |
| 0.25 |  | CN(c1c(-c2ccc(C#Cc3ccccc3)s2)nc2cnccn12)C(C)(C)CC(C)(C)C [Example 98, N-methyl-2-(5-(phenylethynyl)thiophen-2-yl)-N-(2,4,4-trimethylpentan-2-yl)imidazo[1,2-a]pyrazin-3-amine hydrochloride] |
| 0.54 |  | C(#Cc1ccc(-c2nc3cnccn3c2N2CCCC2)s1)c1ccccc1 [Example 99, 2-(5-(phenylethynyl)thiophen-2-yl)-3-(pyrrolidin-1-yl)imidazo[1,2-a]pyrazine hydrochloride] |
| 0.092 |  | CC(C)(C)Nc1c(-c2ccc(C#Cc3cccc(F)c3)s2)nc2cnccn12 [Example 104, N-tert-butyl-2-(5-((3-fluorophenyl)ethynyl)thiophen-2-yl)imidazo[1,2-a]pyrazin-3-amine hydrochloride] |
| 0.15 |  | CC(C)(C)Nc1c(-c2ccc(C#Cc3ccccc3F)s2)nc2cnccn12 [Example 105, N-tert-butyl-2-(5-((2-fluorophenyl)ethynyl)thiophen-2-yl)imidazo[1,2-a]pyrazin-3-amine hydrochloride] |
| 0.3 |  | CC(C)Nc1c(-c2ccc(C#Cc3ccccc3)s2)nc2cnccn12 [Example 109, N-isopropyl-2-(5-(phenylethynyl)thiophen-2-yl)imidazo[1,2-a]pyrazin-3-amine] |
